Assay results reported in publication PMC12198292, “Advancing in vitro assessment of iodide uptake inhibition: integrating a novel biotransformation pretreatment step” (Archives of Toxicology, 2025).
Converted amounts (≈) assume the structure as drawn. “And” between values parts separate entries of the source, which are not always exact repeats. Identical values can stand only once. Like-named read-outs stand apart in the source and are kept apart here.

Experiments:
NIS [1] = target: T1, NIS (Rattus norvegicus, UniProt Q63008); test: NIS-inhibition assay (iodide uptake, Sandell–Kolthoff reaction) on FRTL-5; assay type: cell-based; details: mean ± SD, ≥ 3 independent experiments; 2 h exposure; SK reaction
T1 construct: the endogenously NIS-expressing rat FRTL-5 cell line; host or cells: FRTL-5 (CVCL_0265)
T1 sequence (Q63008 1-618): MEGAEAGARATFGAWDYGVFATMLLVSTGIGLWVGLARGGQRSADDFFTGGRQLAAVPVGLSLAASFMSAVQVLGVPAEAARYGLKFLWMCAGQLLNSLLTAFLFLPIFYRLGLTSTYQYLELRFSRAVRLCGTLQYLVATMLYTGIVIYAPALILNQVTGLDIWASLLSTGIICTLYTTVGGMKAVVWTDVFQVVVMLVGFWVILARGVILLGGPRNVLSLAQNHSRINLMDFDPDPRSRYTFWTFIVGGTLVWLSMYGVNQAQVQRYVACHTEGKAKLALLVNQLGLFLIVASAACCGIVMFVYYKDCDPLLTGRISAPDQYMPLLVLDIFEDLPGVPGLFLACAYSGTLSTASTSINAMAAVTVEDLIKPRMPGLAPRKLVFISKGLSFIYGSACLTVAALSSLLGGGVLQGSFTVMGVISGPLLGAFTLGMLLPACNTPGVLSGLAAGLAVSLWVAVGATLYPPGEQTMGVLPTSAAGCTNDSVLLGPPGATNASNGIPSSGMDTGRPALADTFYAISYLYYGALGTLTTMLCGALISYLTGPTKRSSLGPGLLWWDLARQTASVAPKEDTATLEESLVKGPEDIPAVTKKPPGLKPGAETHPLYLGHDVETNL

[2] = parameters: method as in PubChem https://pubchem.ncbi.nlm.nih.gov/; details: ref PubChem https://pubchem.ncbi.nlm.nih.gov/; cited from earlier work
[3] = ref PubChem https://pubchem.ncbi.nlm.nih.gov/; cited from earlier work
FRTL-5 cells = test: Neutral red uptake viability assay, FRTL-5; details: mean±SD, 2 h exposure
HEK293T NIS C cells = test: Neutral red uptake viability assay, HEK293T NIS C; details: mean±SD, 2 h exposure
human NIS [4] = target: T2, human NIS (Homo sapiens, UniProt Q92911); test: NIS-inhibition assay (iodide uptake, Sandell–Kolthoff reaction) on HEK293T NIS 02; assay type: cell-based; parameters: host or cells: HEK293T (lentiviral transduction, puromycin selection, GFP sorting; lines NIS 02 and NIS C)
T2 sequence (Q92911 1-643): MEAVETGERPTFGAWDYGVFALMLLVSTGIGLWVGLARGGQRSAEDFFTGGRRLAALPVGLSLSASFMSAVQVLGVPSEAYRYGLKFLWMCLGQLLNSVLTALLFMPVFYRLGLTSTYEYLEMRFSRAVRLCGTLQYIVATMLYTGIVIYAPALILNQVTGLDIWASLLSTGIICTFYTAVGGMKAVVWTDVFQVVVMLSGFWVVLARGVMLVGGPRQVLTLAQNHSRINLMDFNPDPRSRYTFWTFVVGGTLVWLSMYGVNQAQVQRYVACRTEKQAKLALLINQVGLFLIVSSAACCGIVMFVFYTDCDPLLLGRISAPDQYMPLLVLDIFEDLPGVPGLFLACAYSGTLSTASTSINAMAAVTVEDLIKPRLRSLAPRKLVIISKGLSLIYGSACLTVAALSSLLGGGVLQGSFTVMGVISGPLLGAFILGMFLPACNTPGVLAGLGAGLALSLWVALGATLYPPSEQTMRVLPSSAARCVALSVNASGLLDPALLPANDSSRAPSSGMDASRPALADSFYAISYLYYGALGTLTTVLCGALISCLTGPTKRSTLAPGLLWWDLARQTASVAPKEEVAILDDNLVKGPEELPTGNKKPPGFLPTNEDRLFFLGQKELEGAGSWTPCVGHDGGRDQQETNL

human NIS [5] = target: T2, human NIS; test: NIS-inhibition assay (iodide uptake, Sandell–Kolthoff reaction) on HEK293T NIS C; assay type: cell-based; parameters: host or cells: HEK293T (lentiviral transduction, puromycin selection, GFP sorting; lines NIS 02 and NIS C); details: for NIS IC50 HEK293T NIS C: mean ± SD, ≥ 3 independent experiments, 2 h exposure, SK reaction
human NIS [6] = target: T2, human NIS; parameters: host or cells: HEK293T (lentiviral transduction, puromycin selection, GFP sorting; lines NIS 02 and NIS C); details: hNIS-HEK293T-EPA, RAIU, cited from earlier work; for IC50: read-out: Data from literature NIS IC50
[7] = parameters: method as in PubChem https://pubchem.ncbi.nlm.nih.gov/; details: ref PubChem https://pubchem.ncbi.nlm.nih.gov/; cited from earlier work; remark: listed apart in the source
human NIS [8] = target: T2, human NIS
in vitro = details: human
human NIS [9] = target: T2, human NIS; test: Biotransformation (BTS, rat S9)-augmented NIS-inhibition assay, HEK293T NIS02; details: for effect of fully active BTS (W/S9, W/cof) on NIS inhibition versus control setups: two-way ANOVA, p < 0.05
NIS [10] = target: T1, NIS; details: FRTL-5, RAIU, ref Buckalew et al., 2020, cited from earlier work; for IC50: read-out: Data from literature NIS IC50
[11] = mean ± SD, ≥ 3 independent experiments, 2 h exposure, SK reaction
[12] = mean ± SD, ≥ 3 independent experiments, 2 h exposure, SK reaction, read-out: NIS IC50 HEK293T NIS 02

O=C(c1ccc(O)cc1O)c1ccc(O)cc1O [BP2, 2,2′-4,4′-Tetrahydroxy Benzophenone]
NIS IC50 FRTL-5 (NIS [1]): n.e and n.e. / n.e. | Henry‘s law [2]: 3.6x10^-6 atm- m^3/mol | solubility in water [3]: 8.821 mg/mL (≈ 35.8 mM) | NR IC20 FRTL-5 (FRTL-5 cells): n.e. / n.e. | NR IC20 HEK293T NISC (HEK293T NIS C cells): n.e./ n.e. | NIS IC50 HEK293T NIS 02 (human NIS [4]; [11]): n.e and n.e./ n.e. | NIS IC50 HEK293T NIS C (human NIS [5]): n.e and n.e./ n.e.

NC(=O)N1c2ccccc2C=Cc2ccccc21 [CBZ, Carbamazepine, reference compound]
NIS IC50 FRTL-5 (NIS [1]): n.e and n.e./ n.e. | Henry‘s law [2]: 1.1x10^-10 atm- m^3/mol | solubility in water [3]: 0.018 mg/mL (≈ 0.0762 mM) | NR IC20 HEK293T NISC (HEK293T NIS C cells): n.e./ n.e. | NIS IC50 HEK293T NIS 02 (human NIS [4]; [11]): n.e and n.e. / n.e. | NIS IC50 HEK293T NIS C (human NIS [5]): n.e and n.e./ n.e. | Data from literature NIS IC50 (human NIS [6]; ref US-EPA, 2024): n.e. | Data from literature NIS IC50 (human NIS [6]; ref Wang et al., 2019): n.e.

CC1=C[C@H]2O[C@@H]3[C@H](O)C[C@](C)([C@@]2(CO)[C@H](O)C1=O)[C@]31CO1 [DON, Deoxynivalenol]
log Kow [7]: -0.71 | Henry‘s law [2]: 2.0x10^-14 atm- m^3/mol | solubility in water [3]: 55 mg/mL (≈ 186 mM)

CCOc1cc(C(C)(C)C)ccc1C1COC(c2c(F)cccc2F)=N1 (stereo not drawn) [ETX, Etoxazole, reference compound]
effect of fully active BTS (W/S9, W/cof) on NIS inhibition versus control setups (human NIS [8]): no biotransformation-related effect changes were detected | IC20 (in vitro): 28.8 µM | IC20 (human NIS [9]; read-out: NIS inhibition IC20 SM): 0.61 µM | IC50 (human NIS [4]; NIS IC50 HEK293T NIS 02): 7.1 ± 4.3 µM | IC50 (human NIS [5]): 11.7 ± 8 µM

COc1ccc(C(c2ccc(OC)cc2)C(Cl)(Cl)Cl)cc1 [MET, Methoxychlor, reference compound]
IC50 (NIS [1]): 218 ± 4.3 µM | log Kow [7]: 5.08 | Henry‘s law [2]: 2.03x10^-7 atm- m^3/mol | solubility in water [3]: 4e-05 mg/mL (≈ 0.000116 mM) | NR IC20 FRTL-5 (FRTL-5 cells): 218±4.3 / n.e. | NR IC20 HEK293T NISC (HEK293T NIS C cells): n.e./ n.e. | IC20 (human NIS [9]; read-out: NIS inhibition IC20 D S9, W/cof, 5 h preincubation with denatured S9 and cofactors, three independent experiments): 20.7 ± 19.5 µM | IC20 (human NIS [9]; read-out: NIS inhibition IC20 W/O S9, W/cof, 5 h preincubation without S9 fraction, with all cofactors, three independent experiments): > 500 µM | effect of fully active BTS (W/S9, W/cof) on NIS inhibition versus control setups (human NIS [9]): no biotransformation-related effect changes were detected | IC50 (human NIS [4]; [12]): 11 ± 8.7 µM | NIS IC50 HEK293T NIS C (human NIS [5]): n.e and n.e./ n.e. | IC20 (human NIS [6]; ref US-EPA, 2024, read-out: Data from literature NIS IC20): 12.6 µM | Data from literature NIS IC50 (human NIS [6]; ref Wang et al., 2018): n.e.

Cn1cc[nH]c1=S [MMI, Methimazole, reference compound]
NIS IC50 FRTL-5 (NIS [1]): n.e and n.e. / n.e. | log Kow [7]: -0.34 | Data from literature NIS IC50 (NIS [10]): n.e. | solubility in water [3]: 200 mg/mL (≈ 1750 mM) | NR IC20 FRTL-5 (FRTL-5 cells): n.e. / n.e. | NR IC20 HEK293T NISC (HEK293T NIS C cells): n.e./ n.e. | NIS IC50 HEK293T NIS 02 (human NIS [4]; [11]): n.e and n.e./ n.e. | NIS IC50 HEK293T NIS C (human NIS [5]): n.e and n.e./ n.e. | Data from literature NIS IC50 (human NIS [6]; ref Buckalew et al., 2020): n.e. | Data from literature NIS IC50 (human NIS [6]; ref Hallinger et al., 2017): n.e. | Data from literature NIS IC50 (human NIS [6]; ref US-EPA, 2024): n.e. | Data from literature NIS IC50 (human NIS [6]; ref Wang et al., 2019): n.e.

O=C(O)C(F)(F)C(F)(F)C(F)(F)C(F)(F)C(F)(F)C(F)(F)C(F)(F)F [PFOA, Perfluorooctanoic acid]
NIS IC50 FRTL-5 (NIS [1]): n.e and n.e. / n.e. | IC50 (NIS [10]): 25.1 µM | solubility in water [3]: 3.3 mg/mL (≈ 7.97 mM) | NR IC20 FRTL-5 (FRTL-5 cells): n.e. / n.e. | NR IC20 HEK293T NISC (HEK293T NIS C cells): n.e./ n.e. | NIS IC50 HEK293T NIS 02 (human NIS [4]; [11]): n.e and n.e. / n.e. | NIS IC50 HEK293T NIS C (human NIS [5]): n.e and n.e./ n.e. | IC50 (human NIS [6]; ref Buckalew et al., 2020): 75.9 µM | Data from literature NIS IC50 (human NIS [6]; ref US-EPA, 2024): n.e. | Data from literature NIS IC50 (human NIS [6]; ref Wang et al., 2018): n.e.

O=S(=O)(O)C(F)(F)C(F)(F)C(F)(F)C(F)(F)C(F)(F)C(F)(F)C(F)(F)C(F)(F)F [PFOS, Perfluorooctane sulfonate]
IC50 (NIS [1]): 9.3 µM and 9.31 µM | log Kow [7]: -1.08 | Henry‘s law [2]: 4.34x10^-7 atm- m^3/mol | IC50 (NIS [10]): 0.4 µM | NR IC20 FRTL-5 (FRTL-5 cells): n.e. | NR IC20 HEK293T NISC (HEK293T NIS C cells): n.e. / n.e. | effect of fully active BTS (W/S9, W/cof) on NIS inhibition versus control setups (human NIS [9]): no significant differences were observed | IC50 (human NIS [4]; [12]): 30.9 ± 21.7 µM | NIS IC50 HEK293T NIS C (human NIS [5]): n.e and n.e. / n.e. | IC50 (human NIS [6]; ref Buckalew et al., 2020): 1.3 µM | IC50 (human NIS [6]; ref US-EPA, 2024): 20.5 µM | IC50 (human NIS [6]; ref Wang et al., 2018): 16.6 µM | IC50 (human NIS [6]; ref Wang et al., 2019): 17 µM

NC(Cc1cc(I)c(Oc2cc(I)c(O)c(I)c2)c(I)c1)C(=O)O [T4, 3,3′,5,5″-Tetraiodo-L-thyronine]
NIS IC50 FRTL-5 (NIS [1]): n.e and n.e. / n.e. | log Kow [7]: 0.16 | solubility in water [3]: 0.000162 mg/mL (≈ 0.000209 mM) | NR IC20 FRTL-5 (FRTL-5 cells): n.e. / n.e. | NR IC20 HEK293T NISC (HEK293T NIS C cells): n.e. / n.e. | NIS IC50 HEK293T NIS 02 (human NIS [4]; [11]): n.e and n.e. / n.e. | NIS IC50 HEK293T NIS C (human NIS [5]): n.e and n.e. / n.e.
